Assay results published in US12030878B2 (BRISTOL-MYERS SQUIBB COMPANY, priority 2017, dated 2024).

Columns and labels:
Assay type in all cases: cell-based
[1] = biological target: T1, human TLR7 (Homo sapiens, UniProt Q9NYK1); experiment: TLR7 inhibition reporter assay (HEK-Blue SEAP); conditions: HEK-Blue cells overexpressing human TLR7, stimulated with gardiquimod 7.5 μM, 22 hour incubation
T1 construct: host or cells: HEK-Blue cells
T1 sequence (Q9NYK1 27-1049): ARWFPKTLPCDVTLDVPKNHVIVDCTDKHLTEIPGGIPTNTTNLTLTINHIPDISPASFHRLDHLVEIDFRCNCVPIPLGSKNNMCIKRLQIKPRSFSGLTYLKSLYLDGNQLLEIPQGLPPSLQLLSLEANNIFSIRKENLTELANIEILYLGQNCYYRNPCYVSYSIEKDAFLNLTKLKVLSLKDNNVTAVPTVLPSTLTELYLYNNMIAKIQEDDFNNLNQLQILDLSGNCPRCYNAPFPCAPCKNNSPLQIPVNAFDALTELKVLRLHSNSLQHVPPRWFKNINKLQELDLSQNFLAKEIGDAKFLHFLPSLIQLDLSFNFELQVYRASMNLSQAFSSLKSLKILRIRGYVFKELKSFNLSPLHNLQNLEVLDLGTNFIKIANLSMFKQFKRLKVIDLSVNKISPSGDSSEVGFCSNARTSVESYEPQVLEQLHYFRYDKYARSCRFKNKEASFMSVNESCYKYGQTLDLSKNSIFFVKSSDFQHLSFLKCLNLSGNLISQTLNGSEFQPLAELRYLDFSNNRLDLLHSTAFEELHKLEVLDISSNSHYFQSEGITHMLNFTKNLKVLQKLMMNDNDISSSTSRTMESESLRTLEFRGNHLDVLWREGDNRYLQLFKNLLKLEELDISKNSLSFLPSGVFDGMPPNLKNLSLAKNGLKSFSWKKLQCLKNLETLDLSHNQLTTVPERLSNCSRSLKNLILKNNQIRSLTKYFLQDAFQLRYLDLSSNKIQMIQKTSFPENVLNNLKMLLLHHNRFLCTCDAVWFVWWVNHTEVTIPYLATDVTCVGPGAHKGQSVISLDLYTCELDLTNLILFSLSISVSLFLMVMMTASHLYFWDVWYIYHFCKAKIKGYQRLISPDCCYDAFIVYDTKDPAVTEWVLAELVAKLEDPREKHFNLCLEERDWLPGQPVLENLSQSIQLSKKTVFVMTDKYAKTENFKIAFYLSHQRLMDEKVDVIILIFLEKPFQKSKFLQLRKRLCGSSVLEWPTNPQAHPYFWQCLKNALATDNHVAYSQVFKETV
Summary of the method: (§1)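 Test compounds, final 0.05 nM–50 μM, pre-treat HEK-Blue human TLR7, TLR8 or TLR9 reporter cells before agonist addition (TLR8 R848 15.9 μM; TLR7 gardiquimod 7.5 μM; TLR9 ODN2006 5 nM). Incubation runs 22 h, 37 °C. SEAP detection gives percent inhibition against DMSO and reference-inhibitor controls.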

[2] = biological target: T2, human TLR8 (Homo sapiens, UniProt Q9NR97); experiment: TLR8 inhibition reporter assay (HEK-Blue SEAP); conditions: HEK-Blue cells overexpressing human TLR8, stimulated with R848 15.9 μM, 22 hour incubation
T2 construct: host or cells: HEK-Blue cells
T2 sequence (Q9NR97 27-1041): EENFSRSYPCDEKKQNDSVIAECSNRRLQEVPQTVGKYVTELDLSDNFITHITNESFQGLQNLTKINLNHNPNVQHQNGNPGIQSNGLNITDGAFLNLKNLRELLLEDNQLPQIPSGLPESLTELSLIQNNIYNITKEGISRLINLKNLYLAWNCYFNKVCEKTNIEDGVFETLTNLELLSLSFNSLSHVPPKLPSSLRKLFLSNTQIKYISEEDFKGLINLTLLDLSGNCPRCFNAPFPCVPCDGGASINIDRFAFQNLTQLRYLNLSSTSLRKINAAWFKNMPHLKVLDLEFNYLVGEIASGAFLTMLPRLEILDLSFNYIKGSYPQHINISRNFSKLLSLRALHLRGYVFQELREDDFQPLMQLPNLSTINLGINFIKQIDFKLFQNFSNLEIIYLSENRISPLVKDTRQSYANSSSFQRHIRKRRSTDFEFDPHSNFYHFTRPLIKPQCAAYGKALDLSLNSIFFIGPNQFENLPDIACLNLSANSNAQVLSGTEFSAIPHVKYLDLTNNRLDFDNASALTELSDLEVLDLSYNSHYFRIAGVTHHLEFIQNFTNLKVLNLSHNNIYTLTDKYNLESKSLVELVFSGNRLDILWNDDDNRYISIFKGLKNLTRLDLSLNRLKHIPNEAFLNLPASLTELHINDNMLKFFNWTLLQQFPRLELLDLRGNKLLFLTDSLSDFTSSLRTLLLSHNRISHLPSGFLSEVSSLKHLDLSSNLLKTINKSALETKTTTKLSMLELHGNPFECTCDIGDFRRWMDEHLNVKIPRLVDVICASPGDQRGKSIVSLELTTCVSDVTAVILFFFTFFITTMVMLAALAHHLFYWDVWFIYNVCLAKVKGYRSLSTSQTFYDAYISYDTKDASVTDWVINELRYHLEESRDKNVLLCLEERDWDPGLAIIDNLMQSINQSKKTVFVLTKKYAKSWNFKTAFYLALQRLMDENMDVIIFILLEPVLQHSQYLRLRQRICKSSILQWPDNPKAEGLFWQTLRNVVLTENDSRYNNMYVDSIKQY
Summary of the method: as §1

[3] = biological target: T3, human TLR9 (Homo sapiens, UniProt Q9NR96); experiment: TLR9 inhibition reporter assay (HEK-Blue SEAP); conditions: HEK-Blue cells overexpressing human TLR9, stimulated with ODN2006 5 nM, 22 hour incubation
T3 construct: host or cells: HEK-Blue cells
T3 sequence (Q9NR96 26-1032): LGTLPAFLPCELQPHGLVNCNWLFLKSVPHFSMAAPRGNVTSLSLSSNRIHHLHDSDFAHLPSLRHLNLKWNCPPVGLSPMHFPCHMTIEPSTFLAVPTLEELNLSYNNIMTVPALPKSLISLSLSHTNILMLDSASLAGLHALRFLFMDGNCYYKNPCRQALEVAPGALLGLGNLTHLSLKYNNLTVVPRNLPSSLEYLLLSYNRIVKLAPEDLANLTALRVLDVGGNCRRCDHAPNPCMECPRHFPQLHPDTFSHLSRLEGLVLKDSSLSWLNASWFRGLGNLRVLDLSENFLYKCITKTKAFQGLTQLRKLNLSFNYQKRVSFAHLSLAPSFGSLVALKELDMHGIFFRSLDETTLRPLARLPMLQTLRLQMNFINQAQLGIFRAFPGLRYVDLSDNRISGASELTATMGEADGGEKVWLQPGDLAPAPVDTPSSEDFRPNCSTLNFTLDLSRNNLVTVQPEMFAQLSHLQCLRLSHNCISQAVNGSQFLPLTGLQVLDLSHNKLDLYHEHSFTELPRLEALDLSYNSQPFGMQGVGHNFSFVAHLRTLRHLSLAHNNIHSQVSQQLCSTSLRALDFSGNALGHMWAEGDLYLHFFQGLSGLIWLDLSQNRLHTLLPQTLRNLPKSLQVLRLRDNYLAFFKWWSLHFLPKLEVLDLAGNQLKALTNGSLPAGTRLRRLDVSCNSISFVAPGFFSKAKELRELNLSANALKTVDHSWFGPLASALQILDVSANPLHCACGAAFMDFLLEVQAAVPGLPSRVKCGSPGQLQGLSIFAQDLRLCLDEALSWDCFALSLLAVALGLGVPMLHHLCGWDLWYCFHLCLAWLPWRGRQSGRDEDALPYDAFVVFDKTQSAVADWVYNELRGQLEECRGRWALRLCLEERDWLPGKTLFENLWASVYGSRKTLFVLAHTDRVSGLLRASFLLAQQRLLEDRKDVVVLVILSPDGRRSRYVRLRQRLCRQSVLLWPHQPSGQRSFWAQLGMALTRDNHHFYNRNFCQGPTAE
Summary of the method: as §1

IC50 [1] [nM]	IC50 [2] [nM]	IC50 [3] [nM]	SMILES
404	561	> 50000	Cc1cc(-c2[nH]c3ccc(OCC(=O)NCC(C)(C)O)cc3c2C(C)C)ccn1 [Example 151, N-(2-hydroxy-2-methylpropyl)-2-((3-isopropyl-2-(2-methylpyridin-4-yl)-1H-indol-5-yl)oxy)acetamide]
35.2	15.3	858	COc1ccc(-c2[nH]c3ccc(OCC(=O)N(C)C4CCCNC4)cc3c2C(C)C)cc1OC (stereo not drawn) [Example 127, 2-((2-(3,4-dimethoxyphenyl)-3-isopropyl-1H-indol-5-yl)oxy)-N-methyl-N-(piperidin-3-yl)acetamide]
0.5	6.8	2990	Cc1cc(-c2[nH]c3ccc(OCC4CN(C)C4)cc3c2C(C)C)cn2ncnc12 [Example 59, 6-(3-isopropyl-5-((1-methylazetidin-3-yl)methoxy)-1H-indol-2-yl)-8-methyl-[1,2,4]triazolo[1,5-a]pyridine]
2.6	9.8	346	Cc1cc(-c2[nH]c3ccc(OCC4CCN(C(=O)CN(C)C)CC4)cc3c2C(C)C)cc(C)n1 [Example 96, 2-(dimethylamino)-1-(4-(((2-(2,6-dimethylpyridin-4-yl)-3-isopropyl-1H-indol-5-yl)oxy)methyl)piperidin-1-yl)ethan-1-one]
142	9.1	2140	COc1ccc(-c2[nH]c3ccc(OCC(=O)N[C@@H]4CCCNC4)cc3c2C(C)C)cc1OC [Example 137, (R)-2-((2-(3,4-dimethoxyphenyl)-3-isopropyl-1H-indol-5-yl)oxy)-N-(piperidin-3-yl)acetamide]
58.6	15.8	2010	COc1ccc(-c2[nH]c3ccc(OCC(=O)N4C[C@H]5C[C@@H]4CN5)cc3c2C(C)C)cc1OC [Example 132, 1-((1R,4R)-2,5-diazabicyclo[2.2.1]heptan-2-yl)-2-((2-(3,4-dimethoxyphenyl)-3-isopropyl-1H-indol-5-yl)oxy)ethan-1-one]
682	63.3	5050	COc1ccc(-c2[nH]c3ccc(OCCN4CCOCC4)cc3c2C(C)C)cc1OC [Example 173, 4-(2-((2-(3,4-dimethoxyphenyl)-3-isopropyl-1H-indol-5-yl)oxy)ethyl)morpholine]
1.5	3.1	1250	Cc1c(-c2[nH]c3ccc(OCC4CCN(C)CC4)cc3c2C(C)C)cn2cnnc2c1C [Example 54, 6-(3-isopropyl-5-((1-methylpiperidin-4-yl)methoxy)-1H-indol-2-yl)-7,8-dimethyl-[1,2,4]triazolo[4,3-a]pyridine]
3.5	5.6	16800	Cc1cc(-c2[nH]c3ccc(OCC4CCN(C(=O)CN(C)C)CC4)cc3c2C(C)C)cn(C)c1=O [Example 97, 5-(5-((1-(dimethylglycyl)piperidin-4-yl)methoxy)-3-isopropyl-1H-indol-2-yl)-1,3-dimethylpyridin-2(1H)-one]
3.6	27	3640	Cc1cc(-c2[nH]c3ccc(O[C@H]4CCCN(C)C4)cc3c2C(C)C)cn2ncnc12 [Example 38, (S)-6-(3-isopropyl-5-((1-methylpiperidin-3-yl)oxy)-1H-indol-2-yl)-8-methyl-[1,2,4]triazolo[1,5-a]pyridine]
109	177	2700	COc1ccc(-c2[nH]c3ccc(OCC(=O)NC[C@H]4CCNC4)cc3c2C(C)C)cc1OC [Example 119, (S)-2-((2-(3,4-dimethoxyphenyl)-3-isopropyl-1H-indol-5-yl)oxy)-N-(pyrrolidin-3-ylmethyl)acetamide]
26.1	9.7	24900	Cc1cc(-c2[nH]c3ccc(OCC4CCN(CC(=O)N(C)C)CC4)cc3c2C(C)C)cn(C)c1=O [Example 81, 2-(4-(((2-(1,5-dimethyl-6-oxo-1,6-dihydropyridin-3-yl)-3-isopropyl-1H-indol-5-yl)oxy)methyl)piperidin-1-yl)-N,N-dimethylacetamide]
5.9	1.7	2290	Cc1cc(-c2[nH]c3ccc(OC4CCN(C5CCOCC5)CC4)cc3c2C(C)C)cn2ncnc12 [Example 68, 6-(3-isopropyl-5-((1-(tetrahydro-2H-pyran-4-yl)piperidin-4-yl)oxy)-1H-indol-2-yl)-8-methyl-[1,2,4]triazolo[1,5-a]pyridine]

SMILES	IC50 [1] [nM]	IC50 [2] [nM]	IC50 [3] [nM]
COc1ccc(-c2[nH]c3ccc(OCC(=O)NC4CC[C@H]5CC[C@@H]4N5C)cc3c2C(C)C)cc1OC (stereo partly drawn) [Example 124, 2-((2-(3,4-dimethoxyphenyl)-3-isopropyl-1H-indol-5-yl)oxy)-N-((5S)-8-methyl-8-azabicyclo[3.2.1]octan-2-yl)acetamide]	227	51.2	4030
